Measured values reported in ChEMBL document CHEMBL5316303, “[1,2,4]Triazolo[3,4-b]benzothiazole Scaffold as Versatile Nicotinamide Mimic Allowing Nanomolar Inhibition of Different PARP Enzymes” (J Med Chem, 2023).

Columns and labels:
[1] = Stability in human plasma measured upto 24 hrs by UV/LC-MS analysis; format: ADME, cell-free
[2] = Stability of the compound in MeOH measured upto 24 hrs by UV/LC-MS analysis; format: physicochemical
[3] = target: Protein mono-ADP-ribosyltransferase PARP6 (Homo sapiens, UniProt Q2NL67); test: Inhibition of N-terminal 6 His-MBP tagged human PARP6 expressed in Sf21 cells incubated for 18 hrs in presence of NAD+
Protein mono-ADP-ribosyltransferase PARP6, sequence (Q2NL67 whole entry): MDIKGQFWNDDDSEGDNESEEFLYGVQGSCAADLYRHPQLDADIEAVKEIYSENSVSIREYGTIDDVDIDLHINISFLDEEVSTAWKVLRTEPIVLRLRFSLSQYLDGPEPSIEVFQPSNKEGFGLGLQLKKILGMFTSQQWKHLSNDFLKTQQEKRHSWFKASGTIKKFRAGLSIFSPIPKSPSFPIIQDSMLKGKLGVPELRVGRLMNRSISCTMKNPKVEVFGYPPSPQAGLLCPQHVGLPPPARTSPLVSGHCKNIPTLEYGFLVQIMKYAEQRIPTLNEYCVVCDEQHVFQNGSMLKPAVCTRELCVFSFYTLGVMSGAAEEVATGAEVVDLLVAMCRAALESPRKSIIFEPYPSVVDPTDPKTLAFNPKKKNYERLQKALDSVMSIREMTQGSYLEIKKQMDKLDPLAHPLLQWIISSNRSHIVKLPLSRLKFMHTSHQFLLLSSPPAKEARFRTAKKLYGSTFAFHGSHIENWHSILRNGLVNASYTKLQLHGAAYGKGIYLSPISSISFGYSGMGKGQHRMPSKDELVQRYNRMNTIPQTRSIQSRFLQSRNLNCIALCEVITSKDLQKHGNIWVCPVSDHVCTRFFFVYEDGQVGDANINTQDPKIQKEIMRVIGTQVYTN

[4] = Stability of the compound in PBS buffer at pH 7.4 measured upto 24 hrs by UV/LC-MS analysis; format: physicochemical; conditions: pH 7.4, 24 h
[5] = target: T1, Protein mono-ADP-ribosyltransferase TIPARP (Homo sapiens, UniProt Q7Z3E1); test: Inhibition of N-terminal MBP tagged/C-terminal PARP7 (unknown origin) expressed in Escherichia coli in presence of NAD+ by proximity enhanced assay
T1 sequence (Q7Z3E1 whole entry): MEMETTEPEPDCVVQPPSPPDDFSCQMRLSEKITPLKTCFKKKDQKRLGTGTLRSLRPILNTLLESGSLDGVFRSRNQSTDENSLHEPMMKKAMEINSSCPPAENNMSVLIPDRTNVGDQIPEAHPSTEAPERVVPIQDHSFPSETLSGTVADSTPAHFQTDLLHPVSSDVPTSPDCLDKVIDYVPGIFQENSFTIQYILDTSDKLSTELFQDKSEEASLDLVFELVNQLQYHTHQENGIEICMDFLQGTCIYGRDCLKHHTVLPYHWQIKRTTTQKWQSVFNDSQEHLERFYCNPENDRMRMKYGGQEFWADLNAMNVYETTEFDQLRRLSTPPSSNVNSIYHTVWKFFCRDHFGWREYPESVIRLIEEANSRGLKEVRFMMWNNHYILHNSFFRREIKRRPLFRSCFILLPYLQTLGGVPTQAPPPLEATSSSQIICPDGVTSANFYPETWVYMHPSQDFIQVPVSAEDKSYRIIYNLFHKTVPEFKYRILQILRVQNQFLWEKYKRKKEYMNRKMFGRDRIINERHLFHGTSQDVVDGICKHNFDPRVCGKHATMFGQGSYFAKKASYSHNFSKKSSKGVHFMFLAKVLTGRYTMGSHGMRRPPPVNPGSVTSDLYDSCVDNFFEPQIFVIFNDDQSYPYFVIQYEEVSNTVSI

[6] = test system: HEK-293T; test: Cytotoxicity in […] cells at 10 to 100 uM measured after 24 hrs by WST-1 based colorimetric assay; format: toxicity, cell-based; conditions: human, dose 10-100 µM
[7] = target: T2, Protein mono-ADP-ribosyltransferase PARP15 (Homo sapiens, UniProt Q460N3); test: Inhibition of N-terminal MBP tagged/C-terminal PARP15 (unknown origin) expressed in Escherichia coli in presence of NAD+
T2 sequence (Q460N3 whole entry): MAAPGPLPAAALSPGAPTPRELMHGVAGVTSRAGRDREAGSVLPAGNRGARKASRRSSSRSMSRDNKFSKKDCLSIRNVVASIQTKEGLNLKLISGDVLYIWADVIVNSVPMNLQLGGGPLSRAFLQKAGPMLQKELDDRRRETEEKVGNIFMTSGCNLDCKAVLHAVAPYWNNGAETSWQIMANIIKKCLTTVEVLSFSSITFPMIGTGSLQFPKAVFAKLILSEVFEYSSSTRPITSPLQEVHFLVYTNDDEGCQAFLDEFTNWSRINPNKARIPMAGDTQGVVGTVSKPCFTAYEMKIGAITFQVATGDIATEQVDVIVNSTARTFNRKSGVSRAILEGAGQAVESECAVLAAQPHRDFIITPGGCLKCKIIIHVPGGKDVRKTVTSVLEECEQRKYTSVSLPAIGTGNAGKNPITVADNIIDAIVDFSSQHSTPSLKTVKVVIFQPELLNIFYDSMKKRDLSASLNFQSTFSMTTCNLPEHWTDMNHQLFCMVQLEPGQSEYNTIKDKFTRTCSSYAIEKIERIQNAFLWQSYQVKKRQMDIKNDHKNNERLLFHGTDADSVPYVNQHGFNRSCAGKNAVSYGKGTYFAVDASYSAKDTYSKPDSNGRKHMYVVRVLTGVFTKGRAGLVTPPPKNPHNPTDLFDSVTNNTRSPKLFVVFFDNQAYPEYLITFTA

[8] = target: T3, Protein mono-ADP-ribosyltransferase PARP10 (Homo sapiens, UniProt Q53GL7); test: Inhibition of N-terminal MBP tagged/C-terminal PARP10 (unknown origin) expressed in Escherichia coli in presence of NAD+
T3 sequence (Q53GL7 whole entry): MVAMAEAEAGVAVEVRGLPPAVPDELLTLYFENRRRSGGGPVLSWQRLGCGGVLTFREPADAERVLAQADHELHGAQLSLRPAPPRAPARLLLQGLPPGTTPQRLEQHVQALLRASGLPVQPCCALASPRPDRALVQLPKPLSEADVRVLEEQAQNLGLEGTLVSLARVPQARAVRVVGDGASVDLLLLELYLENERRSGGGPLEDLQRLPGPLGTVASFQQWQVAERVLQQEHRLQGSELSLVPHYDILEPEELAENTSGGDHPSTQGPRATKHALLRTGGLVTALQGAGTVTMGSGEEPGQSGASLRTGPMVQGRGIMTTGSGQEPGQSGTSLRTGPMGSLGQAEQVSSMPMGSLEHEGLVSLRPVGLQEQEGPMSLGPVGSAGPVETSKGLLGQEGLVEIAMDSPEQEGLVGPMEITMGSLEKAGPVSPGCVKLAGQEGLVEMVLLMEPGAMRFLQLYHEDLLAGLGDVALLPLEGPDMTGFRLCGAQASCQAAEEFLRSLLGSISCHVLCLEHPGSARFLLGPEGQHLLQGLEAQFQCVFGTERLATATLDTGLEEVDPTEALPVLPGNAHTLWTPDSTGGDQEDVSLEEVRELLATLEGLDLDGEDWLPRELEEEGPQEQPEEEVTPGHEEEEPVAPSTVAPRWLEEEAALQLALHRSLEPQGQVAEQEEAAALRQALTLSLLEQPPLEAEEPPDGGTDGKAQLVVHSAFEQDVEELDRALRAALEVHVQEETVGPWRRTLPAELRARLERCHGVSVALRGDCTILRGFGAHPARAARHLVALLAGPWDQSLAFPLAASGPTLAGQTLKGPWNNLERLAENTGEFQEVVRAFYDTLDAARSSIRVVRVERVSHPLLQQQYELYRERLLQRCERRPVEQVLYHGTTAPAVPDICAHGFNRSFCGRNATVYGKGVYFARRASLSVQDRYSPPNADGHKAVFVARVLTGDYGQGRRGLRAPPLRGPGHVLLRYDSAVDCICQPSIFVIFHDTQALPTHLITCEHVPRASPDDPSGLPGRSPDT

| SMILES | IC50 [7] | IC50 [8] | Activity [6] | further results |
| --- | --- | --- | --- | --- |
| Oc1ccc2c(c1)sc1nncn12 |  |  | Non-Toxic | Stability [1]: > 24 h; Stability [2]: > 24 h; IC50 [3]: Not Active; Stability [4]: > 24 h; IC50 [5]: Not Active |
| Oc1ccc(O)c2c1sc1nncn12 |  |  | Toxic |  |
| CC(C)c1ccc2c(c1)sc1nncn12 |  |  | Toxic |  |
| COc1ccc(OC)c2c1sc1nnc(N)n12 |  |  | Non-Toxic | Stability [1]: > 24 h; Stability [2]: > 24 h; Stability [4]: > 24 h |
| Cc1ccc2c(c1)sc1nnc(NCc3ccc(Cl)cc3)n12 |  | Not Active |  |  |
| Cc1ccc2c(c1)sc1nnc(N)n12 |  |  | Non-Toxic | Stability [1]: > 24 h; Stability [2]: > 24 h; Stability [4]: > 24 h |

Continued, in another order:

| IC50 [7] | IC50 [8] | SMILES | Activity [6] | further results |
| --- | --- | --- | --- | --- |
| Not Active | Not Active | COc1ccc(OC)c2c1sc1nnc(SC)n12 |  |  |
| Not Active | Not Active | COc1ccc(OC)c2c1sc1nnc(NC(=O)C(C)(C)C)n12 |  |  |
|  | Not Active | COc1ccc(OC)c2c1sc1nnc(NC(=O)c3ccc(Cl)cc3)n12 |  |  |
| Not Active | Not Active | COc1ccc(OC)c2c1sc1nnc(S)n12 |  |  |
| Not Active | Not Active | COc1ccc(OC)c2c1sc1nnc(NC(C)=O)n12 |  |  |
